The values that follow come from US20170129916A1, “NOVEL BETULINIC PROLINE IMIDAZOLE DERIVATIVES AS HIV INHIBITORS” (HETERO RESEARCH FOUNDATION, priority 2014, published 2017).

For orientation: IC50 means the concentration that inhibits the measured activity by half.

Data set [1] can be described thus: Single dose oral pharmacokinetic study. The note with it: mouse, mice, 30 mg/kg, plasma; for AUC(0-t): read-out: Mice oral PK @30 mg/kg AUC 0-t; for Cmax: read-out: Mice oral PK @30 mg/kg Cmax. Format: in vivo. How it is done:
The test item was administered through oral route to animals (rat/mice) at 30 mg/kg dose in a suitable vehicle at 10 ml/kg dose volume. Blood samples (˜50 uL at each time point) were collected from retro-orbital plexus using K3 EDTA as anticoagulant in eppend; orf tubes at defined time intervals under light ether anesthesia. The samples were centrifuged at 3500×g to separate plasma and stored at −80° C. until analysis.
Sample analysis: Test samples were analyzed using LC-MS-MS after developing fit-for-purpose method for each of test compound.

Data set [2] concerns HIV-1 strains, for e.g., 92HT599. The data set is described as follows: Antiviral activity: p24 estimation in MT-2 cells infected with HIV-1. The data set is classed as cell-based. As to conditions: Human immunodeficiency virus 1, MT2; MT-2 cells infected with HIV-1, p24, ~96 hours; read-out: Antiviral activity IC50 (nM) Efficacy IC50. How it is done: MT-2 cells were infected with required number of TCID50's of HIV-1 strains, for e.g., 92HT599. The infected cells were plated at the concentration of 30, 000 cells per well in a 96 well plate. Test compound was added to the 96 well plate with the final concentration of DMSO (vehicle—not more than 1%). The plates are then incubated in a CO2 incubator for ˜96 hours (˜4 days) for viral infection. At the end of incubation period an aliquot from each well was taken for p24 estimation. The quantitation of p24 is an estimated index for antiviral activity of the compound. Percent inhibition was calculated with reference to control values (vehicle controls).
p-24 estimation was carried out using Advance biosciences kit as per the procedure detailed by supplier.

Regarding `C=C(C)[C@@H]1CC[C@]2(C(=O)N3C[C@H](OCCOC)C[C@H]3c3nc(-c4cccnc4)c[nH]3)CC[C@]3(C)[C@H](CC[C@@H]4[C@@]5(C)CC[C@H](OC(=O)[C@H]6C[C@@H](C(=O)O)C6(C)C)C(C)(C)[C@@H]5CC[C@]43C)[C@@H]12` [Compound 10, (1R,3S)-3-((((1R,3aS,5aR,5bR,7aR,9S,11bR,11bR,13aR,13bR)-3a-((2S,4R)-4-(2-methoxyethoxy)-2-(4-(pyridin-3-yl)-1H-imidazol-2-yl)pyrrolidine-1-carbonyl)-5a,5b,8,8,11a-pentamethyl-1-(prop-1-en-2-yl)icosahydro-1H-cyclopenta[a]chrysen-9-yl)oxy)carbonyl)-2,2-dimethylcyclobutane-1-carboxylic acid], in data set [1], the AUC(0-t) came to 301 µg·h/mL and the Cmax was determined as 17900 ng/mL. Moreover, the IC50 in data set [2] was 2.82 nM.
For the molecule `C=C(C)[C@@H]1CC[C@]2(C(=O)N3CCC[C@H]3c3nnc(-c4ccccc4)o3)CC[C@]3(C)[C@H](CC[C@@H]4[C@@]5(C)CC[C@H](OC(=O)[C@H]6C[C@@H](C(=O)O)C6(C)C)C(C)(C)[C@@H]5CC[C@]43C)[C@@H]12` [Compound 11, (1R,3S)-2,2-dimethyl-3-((((1R,3aS,5aR,5bR,7aR,9S,11aR,11bR,13aR,13bR)-5a,5b,8,8,11a-pentamethyl-3a-((S)-2-(5-phenyl-1,3,4-oxadiazol-2-yl)pyrrolidine-1-carbonyl)-1-(prop-1-en-2-yl)icosahydro-1H-cyclopenta[a]chrysen-9-yl)oxy)carbonyl)cyclobutane-1-carboxylic acid], in data set [1], the AUC(0-t) stood at 403 µg·h/mL and the Cmax was determined as 16300 ng/mL. Further, in data set [2], the IC50 was 5.96 nM.
For `C=C(C)[C@@H]1CC[C@]2(C(=O)N3CCC[C@H]3c3nc(C(C)(C)C)co3)CC[C@]3(C)[C@H](CC[C@@H]4[C@@]5(C)CC[C@H](OC(=O)[C@H]6C[C@@H](C(=O)O)C6(C)C)C(C)(C)[C@@H]5CC[C@]43C)[C@@H]12` [Compound 12, (1R,3S)-3-((((1R,3aS,5aR,5bR,7aR,9S,11aR,11bR,13aR,13bR)-3a-((S)-2-(4-(tert-butyl)oxazol-2-yl)pyrrolidine-1-carbonyl)-5a,5b,8,8,11a-pentamethyl-1-(prop-1-en-2-yl)icosahydro-1H-cyclopenta[a]chrysen-9-yl)oxy)carbonyl)-2,2-dimethylcyclobutane-1-carboxylic acid] the same measures were 395 µg·h/mL, 13200 ng/mL and 139 nM.
On to `C=C(C)[C@@H]1CC[C@]2(C(=O)N3CCC[C@H]3c3nc(C(C)C)c[nH]3)CC[C@]3(C)[C@H](CC[C@@H]4[C@@]5(C)CC[C@H](OC(=O)[C@H]6C[C@@H](C(=O)O)C6(C)C)C(C)(C)[C@@H]5CC[C@]43C)[C@@H]12` [Compound 14, (1R,3S)-3-((((1R,3aS,5aR,5bR,7aR,9S,11aR,11bR,13aR,13bR)-3a-((S)-2-(4-isopropyl-1H-imidazol-2-yl)pyrrolidine-1-carbonyl)-5a,5b,8,8,11a-pentamethyl-1-(prop-1-en-2-yl)icosahydro-1H-cyclopenta[a]chrysen-9-yl)oxy)carbonyl)-2,2-dimethylcyclobutane-1-carboxylic acid], for which, in data set [1], the AUC(0-t) came out at 437 µg·h/mL and the Cmax was 19600 ng/mL. For the same molecule, in data set [2], the IC50 is 0.138 nM.
On the same counts, the results for `C=C(C)[C@@H]1CC[C@]2(C(=O)N3CCC[C@H]3c3ncc(-c4ccccc4)o3)CC[C@]3(C)[C@H](CC[C@@H]4[C@@]5(C)CC[C@H](OC(=O)[C@H]6C[C@@H](C(=O)O)C6(C)C)C(C)(C)[C@@H]5CC[C@]43C)[C@@H]12` [Compound 15, (1R,3S)-2,2-dimethyl-3-((((1R,3aS,5aR,5bR,7aR,9S,11aR,11bR,13aR,13bR)-5a,5b,8,8,11a-pentamethyl-3a-((S)-2-(5-phenyloxazol-2-yl)pyrrolidine-1-carbonyl)-1-(prop-1-en-2-yl)icosahydro-1H-cyclopenta[a]chrysen-9-yl)oxy)carbonyl)cyclobutane-1-carboxylic acid] are 208 µg·h/mL, 6510 ng/mL and 124 nM.
